Where “and” joins values, the source holds several entries; their conditions need not be identical. Identical values can stand only once. Toxic doses and inconclusive results are not listed. No stated cut-off is given here; in the data, active means T/C of 150% or more; inactive means T/C below 125%.
Tested on: L1210 leukemia ip in BDF1 mice, survival T/C
Experiment: NCI In Vivo Anticancer Drug Screen. Data for tumor model L1210 Leukemia (intraperitoneal) in B6D2F1 (BDF1) mice
Settings: higher = longer survival
Summary of the method: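 Ratio derived from survival: compound-dosed mice over vehicle-dosed mice, all bearing a transplantable tumor.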

[1] = endpoint: mean survival time, dose: 100.0 mg/kg/injection, schedule: Q01DX001 (ip), vehicle: carboxymethylcellulose (CMC)
[2] = endpoint: mean survival time, dose: 200.0 mg/kg/injection, schedule: Q01DX001 (ip), vehicle: carboxymethylcellulose (CMC)
[3] = endpoint: mean survival time, dose: 400.0 mg/kg/injection, schedule: Q01DX001 (ip), vehicle: carboxymethylcellulose (CMC)
[4] = endpoint: mean survival time, dose: 100.0 mg/kg/injection, schedule: Q01DX009 (ip), vehicle: saline
[5] = endpoint: mean survival time, dose: 400.0 mg/kg/injection, schedule: Q01DX001 (ip), vehicle: saline
[6] = endpoint: mean survival time, dose: 100.0 mg/kg/injection, schedule: Q01DX001 (ip), vehicle: saline
[7] = endpoint: mean survival time, dose: 200.0 mg/kg/injection, schedule: Q01DX001 (ip), vehicle: saline
[8] = endpoint: mean survival time, dose: 100.0 mg/kg/injection, schedule: Q04DX003 (ip), vehicle: saline with Tween-80
[9] = endpoint: mean survival time, dose: 200.0 mg/kg/injection, schedule: Q04DX003 (ip), vehicle: saline with Tween-80
[10] = endpoint: mean survival time, dose: 400.0 mg/kg/injection, schedule: Q04DX003 (ip), vehicle: saline with Tween-80
[11] = endpoint: mean survival time, dose: 25.0 mg/kg/injection, schedule: Q01DX009 (ip), vehicle: saline with Tween-80
[12] = endpoint: mean survival time, dose: 12.5 mg/kg/injection, schedule: Q01DX009 (ip), vehicle: saline
[13] = endpoint: mean survival time, dose: 25.0 mg/kg/injection, schedule: Q01DX009 (ip), vehicle: saline
[14] = endpoint: mean survival time, dose: 50.0 mg/kg/injection, schedule: Q01DX009 (ip), vehicle: saline

Measured: T/C

COC(=O)Cc1ccc([N+](=O)[O-])cc1
inactive: [1] 94 % of control | [2] 91 % of control | [3] 88 % of control

O=C(O)C(c1cc(Cl)co1)N1C(=O)c2ccccc2C1=O (stereo not drawn)
inactive: endpoint: mean survival time, dose: 100.0 mg/kg/injection, schedule: Q04DX003 (ip), vehicle: Klucel (hydroxypropylcellulose) (HPC) 103 % of control | endpoint: mean survival time, dose: 200.0 mg/kg/injection, schedule: Q04DX003 (ip), vehicle: Klucel (hydroxypropylcellulose) (HPC) 101 % of control | endpoint: mean survival time, dose: 400.0 mg/kg/injection, schedule: Q04DX003 (ip), vehicle: Klucel (hydroxypropylcellulose) (HPC) 103 % of control

CS(=O)(=O)Nc1ccccc1
inactive: endpoint: mean survival time, dose: 75.0 mg/kg/injection, schedule: Q04DX003 (ip), vehicle: Klucel (hydroxypropylcellulose) (HPC) 98 % of control | endpoint: mean survival time, dose: 100.0 mg/kg/injection, schedule: Q01DX001 (ip), vehicle: Klucel (hydroxypropylcellulose) (HPC) 96 % of control | endpoint: mean survival time, dose: 150.0 mg/kg/injection, schedule: Q04DX003 (ip), vehicle: Klucel (hydroxypropylcellulose) (HPC) 93 % of control | endpoint: mean survival time, dose: 200.0 mg/kg/injection, schedule: Q01DX001 (ip), vehicle: Klucel (hydroxypropylcellulose) (HPC) 101 % of control | endpoint: mean survival time, dose: 300.0 mg/kg/injection, schedule: Q04DX003 (ip), vehicle: Klucel (hydroxypropylcellulose) (HPC) 93 % of control | endpoint: mean survival time, dose: 400.0 mg/kg/injection, schedule: Q01DX001 (ip), vehicle: Klucel (hydroxypropylcellulose) (HPC) 96 % of control

COc1ccc(C(=O)N/N=C/c2cccc(OC)c2OC)cc1
inactive: endpoint: mean survival time, dose: 45.0 mg/kg/injection, schedule: Q01DX009 (ip), vehicle: saline 98 % of control | endpoint: mean survival time, dose: 65.0 mg/kg/injection, schedule: Q01DX009 (ip), vehicle: saline 98 % of control | endpoint: mean survival time, dose: 85.0 mg/kg/injection, schedule: Q04DX003 (ip), vehicle: saline 93 % of control | [4] 102 % of control | endpoint: mean survival time, dose: 100.0 mg/kg/injection, schedule: Q04DX002 (ip), vehicle: Klucel (hydroxypropylcellulose) (HPC) 104 % of control and 105 % of control | endpoint: mean survival time, dose: 130.0 mg/kg/injection, schedule: Q04DX003 (ip), vehicle: saline 93 % of control | endpoint: mean survival time, dose: 150.0 mg/kg/injection, schedule: Q01DX009 (ip), vehicle: saline 95 % of control | endpoint: mean survival time, dose: 175.0 mg/kg/injection, schedule: Q01DX001 (ip), vehicle: saline 104 % of control | endpoint: mean survival time, dose: 175.0 mg/kg/injection, schedule: Q04DX002 (ip), vehicle: saline 91 % of control | endpoint: mean survival time, dose: 200.0 mg/kg/injection, schedule: Q04DX002 (ip), vehicle: Klucel (hydroxypropylcellulose) (HPC) 101 % of control and 104 % of control | endpoint: mean survival time, dose: 200.0 mg/kg/injection, schedule: Q04DX003 (ip), vehicle: saline 93 % of control | endpoint: mean survival time, dose: 265.0 mg/kg/injection, schedule: Q01DX001 (ip), vehicle: saline 107 % of control | endpoint: mean survival time, dose: 265.0 mg/kg/injection, schedule: Q04DX002 (ip), vehicle: saline 102 % of control | endpoint: mean survival time, dose: 300.0 mg/kg/injection, schedule: Q04DX003 (ip), vehicle: saline 102 % of control | [5] 96 % of control | endpoint: mean survival time, dose: 400.0 mg/kg/injection, schedule: Q04DX002 (ip), vehicle: saline 96 % of control | endpoint: mean survival time, dose: 600.0 mg/kg/injection, schedule: Q01DX001 (ip), vehicle: saline 102 % of control | endpoint: mean survival time, dose: 600.0 mg/kg/injection, schedule: Q04DX002 (ip), vehicle: saline 106 % of control

CC[N+](C)(CC)CCOc1cc(C)ccc1C(C)C
inactive: endpoint: mean survival time, dose: 25.0 mg/kg/injection, schedule: Q04DX003 (ip), vehicle: saline 104 % of control | endpoint: mean survival time, dose: 50.0 mg/kg/injection, schedule: Q04DX003 (ip), vehicle: saline 98 % of control | endpoint: mean survival time, dose: 100.0 mg/kg/injection, schedule: Q04DX003 (ip), vehicle: saline 93 % of control and 98 % of control

O=C1/C=C2/C=CC=CN2C(=O)/C=C2/C=CC=CN12
inactive: endpoint: mean survival time, dose: 50.0 mg/kg/injection, schedule: Q01DX001 (ip), vehicle: saline 104 % of control | [6] 101 % of control | [7] 104 % of control | [5] 97 % of control

CCC(CC)c1cccc2c(C(CC)CC)cccc12
inactive: [6] 98 % of control | [7] 96 % of control | [5] 96 % of control

CCOc1ncnc2c1ncn2-c1cccc(C)c1
inactive: endpoint: mean survival time, dose: 50.0 mg/kg/injection, schedule: Q01DX001 (ip), vehicle: carboxymethylcellulose (CMC) 98 % of control | [1] 110 % of control | [2] 101 % of control | [3] 98 % of control

CNC(=O)Nc1ccccc1
inactive: [8] 94 % of control | [9] 90 % of control | [10] 94 % of control

COc1ccc(C)cc1NC(=O)C(Br)C(Br)C(=O)O (stereo not drawn)
inactive: endpoint: mean survival time, dose: 100.0 mg/kg/injection, schedule: Q01DX009 (ip), vehicle: Klucel (hydroxypropylcellulose) (HPC) 100 % of control | endpoint: mean survival time, dose: 200.0 mg/kg/injection, schedule: Q01DX009 (ip), vehicle: Klucel (hydroxypropylcellulose) (HPC) 97 % of control | endpoint: mean survival time, dose: 400.0 mg/kg/injection, schedule: Q01DX009 (ip), vehicle: Klucel (hydroxypropylcellulose) (HPC) 96 % of control

CCCNC1(C(N)=O)CCN(Cc2ccccc2)CC1
inactive: [11] 93 % of control | endpoint: mean survival time, dose: 25.0 mg/kg/injection, schedule: Q04DX003 (ip), vehicle: saline with Tween-80 97 % of control | endpoint: mean survival time, dose: 50.0 mg/kg/injection, schedule: Q01DX009 (ip), vehicle: saline with Tween-80 95 % of control | endpoint: mean survival time, dose: 50.0 mg/kg/injection, schedule: Q04DX003 (ip), vehicle: saline with Tween-80 97 % of control | endpoint: mean survival time, dose: 100.0 mg/kg/injection, schedule: Q01DX009 (ip), vehicle: saline with Tween-80 91 % of control | [8] 97 % of control and 101 % of control

[I][Hg][CH2]C1COC([CH2][Hg][I])CO1 (stereo not drawn)
inactive: endpoint: mean survival time, dose: 6.25 mg/kg/injection, schedule: Q01DX010 (ip), vehicle: saline 98 % of control | [12] 97 % of control and 100 % of control | endpoint: mean survival time, dose: 12.5 mg/kg/injection, schedule: Q01DX010 (ip), vehicle: saline 106 % of control | [13] 96 % of control and 101 % of control | endpoint: mean survival time, dose: 25.0 mg/kg/injection, schedule: Q01DX010 (ip), vehicle: saline 110 % of control | [14] 93 % of control and 92 % of control | endpoint: mean survival time, dose: 50.0 mg/kg/injection, schedule: Q01DX010 (ip), vehicle: saline 97 % of control | [4] 93 % of control and 97 % of control | endpoint: median survival time, dose: 12.5 mg/kg/injection, schedule: Q01DX009 (ip), vehicle: saline 93 % of control | endpoint: median survival time, dose: 25.0 mg/kg/injection, schedule: Q01DX009 (ip), vehicle: saline 93 % of control | endpoint: median survival time, dose: 50.0 mg/kg/injection, schedule: Q01DX009 (ip), vehicle: saline 93 % of control

c1ccc(Nc2ccc(C(c3ccccc3)(c3ccccc3)c3ccccc3)cc2)cc1
inactive: endpoint: mean survival time, dose: 25.6 mg/kg/injection, schedule: Q04DX002 (ip), vehicle: saline with Tween-80 97 % of control | endpoint: mean survival time, dose: 64.0 mg/kg/injection, schedule: Q04DX002 (ip), vehicle: saline with Tween-80 94 % of control | endpoint: mean survival time, dose: 160.0 mg/kg/injection, schedule: Q04DX002 (ip), vehicle: saline with Tween-80 97 % of control | endpoint: mean survival time, dose: 400.0 mg/kg/injection, schedule: Q04DX002 (ip), vehicle: saline with Tween-80 91 % of control

c1ccc2c(C(CCN3CCOCC3)(CCN3CCOCC3)CNC3=NCCN3)cccc2c1
inactive: [12] 105 % of control | [11] 103 % of control | [13] 109 % of control | [14] 111 % of control

COP(=O)(OC)C(OC(=O)C(C)(C)Br)=C(C)C
inactive: [8] 102 % of control | [9] 106 % of control | [10] 113 % of control
